Marks after values point to notes of the source that are not given here.
How the values were obtained:
Format in all cases: cell-based
AmelOR109 [1] = molecular target: T1, AmelOR109 (Apis mellifera, UniProt A0A7M6UWX9); assay: single sensillum recording, ab3A OSN, dose-response; settings: agonist; estimated airborne amount in stimulus, not a concentration; vs mineral oil; full curve only in Figure 5B
T1 construct: gene Or109; full-length ORF, codon-optimized, pUAST.attB at 86F8; expressed in ab3A OSNs of D. melanogaster lacking OR22a/OR22b (empty neuron); endogenous Drosophila Orco as co-receptor; with Odorant receptor coreceptor
T1 sequence (A0A7M6UWX9 1-390): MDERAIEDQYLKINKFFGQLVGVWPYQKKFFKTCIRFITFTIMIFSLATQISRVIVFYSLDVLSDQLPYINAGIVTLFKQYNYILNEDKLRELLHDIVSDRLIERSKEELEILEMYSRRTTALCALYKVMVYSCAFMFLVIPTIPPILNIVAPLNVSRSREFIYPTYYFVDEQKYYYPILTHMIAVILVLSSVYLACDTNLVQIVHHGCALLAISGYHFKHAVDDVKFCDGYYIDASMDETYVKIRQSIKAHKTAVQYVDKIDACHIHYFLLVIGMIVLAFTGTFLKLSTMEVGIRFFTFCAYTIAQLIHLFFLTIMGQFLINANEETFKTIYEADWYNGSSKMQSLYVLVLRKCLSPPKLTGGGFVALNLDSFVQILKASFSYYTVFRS
T1 sequence (Q9VNB5 1-486 partner): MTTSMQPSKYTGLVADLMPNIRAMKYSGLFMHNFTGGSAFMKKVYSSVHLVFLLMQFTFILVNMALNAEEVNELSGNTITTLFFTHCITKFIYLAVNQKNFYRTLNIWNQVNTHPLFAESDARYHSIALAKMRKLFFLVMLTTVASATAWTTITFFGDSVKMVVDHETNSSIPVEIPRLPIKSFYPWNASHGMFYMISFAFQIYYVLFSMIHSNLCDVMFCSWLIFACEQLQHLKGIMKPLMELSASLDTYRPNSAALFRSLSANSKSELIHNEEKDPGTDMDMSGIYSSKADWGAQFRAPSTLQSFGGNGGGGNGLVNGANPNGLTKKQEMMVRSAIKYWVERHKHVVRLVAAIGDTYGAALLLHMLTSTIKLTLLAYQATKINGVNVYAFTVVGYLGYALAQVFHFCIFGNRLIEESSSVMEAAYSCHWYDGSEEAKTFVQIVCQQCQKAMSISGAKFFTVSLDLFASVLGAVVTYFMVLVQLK

AmelOR109 [2] = molecular target: T1, AmelOR109; assay: single sensillum recording, ab3A OSN; settings: agonist; 1000 µg on filter paper; vs mineral oil
AmelOR109 [3] = molecular target: T1, AmelOR109; assay: transcuticular calcium imaging (GCaMP6s), ab3A OSN; settings: agonist; 1000 µg on filter paper; vs mineral oil

Row | SMILES | dose of statistical significance (AmelOR109 [1]) [pmol] | further results
1 | CC(=O)OCc1ccccc1 [benzyl acetate] | 390 | 
2 | CCCCCCCCOC(C)=O [octyl acetate] | 15000 | 
3 | CCCC(=O)OCC [ethyl butyrate] | 47000 | 
4 | CCC(C)=O [2-butanone] |  | spikes per second (AmelOR109 [2]): AmelOR109 was activated by multiple compounds in the panel, including 2-butanone
5 | CC(=O)OCCC(C)C [isopentyl acetate] | 2700 | 
6 | CC(C)=CCC/C(C)=C/C(=O)O [geranic acid] |  | ΔF/F0 (AmelOR109 [3]): two compounds from the aggregation pheromone were strongly active: geranic acid

— article PMC12848076, “Identification of two odorant receptors tuned to alarm pheromone compounds in the honey bee Apis mellifera” (Communications Biology, 2025)
